# Patent US12679843B2, “Pyrrolopyrimidine amines as complement inhibitors” (BioCryst Pharmaceuticals, Inc., priority 2020, dated 2026)
# Target: Factor D (Homo sapiens, UniProt P00746)
# Test: Factor D esterolytic assay (Z-Lys-SBzl thioester substrate, DTNB, 405 nm)
# Type: biochemical
# Conditions: substrate Z-Lys-SBzl 1.29 mM, 100 mM HEPES, 500 mM NaCl, pH 7.5, 10% DMSO, tested a minimum of three times
# Method in brief: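 Run in pH 7.5 HEPES (100 mM) with 500 mM NaCl and 10% DMSO, with compound preincubated at room temperature or not before adding 1.29 mM Z-Lys-SBzl. Free thiol released by Factor D reacts with DTNB, and rate is followed at 405 nm minus 690 nm over 600 s. IC50 derives from rate-based inhibition, minimum three replicates.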
# Sequence of Factor D (P00746 26-253): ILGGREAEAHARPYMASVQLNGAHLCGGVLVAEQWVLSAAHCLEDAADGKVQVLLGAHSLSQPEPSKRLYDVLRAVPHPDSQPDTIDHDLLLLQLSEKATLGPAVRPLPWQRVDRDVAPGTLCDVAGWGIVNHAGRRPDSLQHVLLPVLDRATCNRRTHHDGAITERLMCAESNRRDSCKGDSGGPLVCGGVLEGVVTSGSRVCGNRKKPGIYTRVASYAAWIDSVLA
row,IC50 [nM],SMILES
1,< 100,"Cc1nc(C(F)(F)F)cc2c3c(N)ncnc3n(CC(=O)N3[C@H](C(=O)Nc4cncc(Br)n4)C[C@@]4(C)C[C@@H]34)c12 [Compound 350a, (1R,3S,5R)-2-(2-(4-amino-8-methyl-6-(trifluoromethyl)-9H-pyrido[4′,3′:4,5]pyrrolo[2,3-d]pyrimidin-9-yl)acetyl)-N-(6-bromopyrazin-2-yl)-5-methyl-2-azabicyclo[3.1.0]hexane-3-carboxamide]"
2,> 1000,"Cc1nc(N)c2ccn(CC(=O)N3C[C@H](F)C[C@H]3C(=O)NCc3cccc(Cl)c3F)c2n1 [Compound 132d, (2S,4R)-1-(2-(4-amino-2-methyl-7H-pyrrolo[2,3-d]pyrimidin-7-yl)acetyl)-N-(3-chloro-2-fluorobenzyl)-4-fluoropyrrolidine-2-carboxamide]"
3,< 100,"Nc1ncnc2c1c1cnccc1n2CC(=O)N1[C@@H]2C[C@@H]2C[C@H]1C(=O)Nc1cccc(Br)n1 [Compound 163g, (1R,3S,5R)-2-(2-(4-amino-9H-pyrido[3′,4′:4,5]pyrrolo[2,3-d]pyrimidin-9-yl)acetyl)-N-(6-bromopyridin-2-yl)-2-azabicyclo[3.1.0]hexane-3-carboxamide]"
4,< 100,"Cc1cc(-c2ccccc2)cc2c3c(N)ncnc3n(CC(=O)N3[C@@H]4C[C@@H]4C[C@H]3C(=O)Nc3cccc(Br)n3)c12 [Compound 229c, (1R,3S,5R)-2-(2-(4-amino-8-methyl-6-phenyl-9H-pyrimido[4,5-b]indol-9-yl)acetyl)-N-(6-bromopyridin-2-yl)-2-azabicyclo[3.1.0]hexane-3-carboxamide]"
5,< 100,"Cc1cc2c3c(N)ncnc3n(CC(=O)N3[C@H](C(=O)Nc4cccc(Br)n4)C[C@@]4(C)C[C@@H]34)c2cc1F [Compound 385a, (1R,3S,5R)-2-(2-(4-amino-7-fluoro-6-methyl-9H-pyrimido[4,5-b]indol-9-yl)acetyl)-N-(6-bromopyridin-2-yl)-5-methyl-2-azabicyclo[3.1.0]hexane-3-carboxamide]"
6,> 1000,"Nc1ncnc2c1c1cccc(C(F)(F)F)c1n2CC(=O)N1[C@@H]2C[C@@H]2C[C@H]1C(=O)Nc1cccc(Br)n1 [Compound 174g, (1R,3S,5R)-2-(2-(4-amino-8-(trifluoromethyl)-9H-pyrimido[4,5-b]indol-9-yl)acetyl)-N-(6-bromopyridin-2-yl)-2-azabicyclo[3.1.0]hexane-3-carboxamide]"
7,< 100,"COC(=O)c1cccc2c3c(N)ncnc3n(CC(=O)N3[C@@H]4C[C@@H]4C[C@H]3C(=O)Nc3cccc(Br)n3)c12 [Compound 47g, methyl 4-amino-9-(2-((1R,3S,5R)-3-((6-bromopyridin-2-yl)carbamoyl)-2-azabicyclo[3.1.0]hexan-2-yl)-2-oxoethyl)-9H-pyrimido[4,5-b]indole-8-carboxylate]"
8,> 1000,"CC1(C)CCCC(NC(=O)[C@@H]2C[C@H]3C[C@H]3N2C(=O)Cn2cnc3c(N)ncnc32)C1 (stereo partly drawn) [Compound 97b, (1R,3S,5R)-2-(2-(6-amino-9H-purin-9-yl)acetyl)-N-(3,3-dimethylcyclohexyl)-2-azabicyclo[3.1.0]hexane-3-carboxamide]"
9,< 100,"Cc1cc(-c2ccnc(C(F)(F)F)c2)cc2c3c(N)ncnc3n(CC(=O)N3[C@@H]4C[C@@H]4C[C@H]3C(=O)Nc3cccc(Br)n3)c12 [Compound 354c, (1R,3S,5R)-2-(2-(4-amino-8-methyl-6-(2-(trifluoromethyl)pyridin-4-yl)-9H-pyrimido[4,5-b]indol-9-yl)acetyl)-N-(6-bromopyridin-2-yl)-2-azabicyclo[3.1.0]hexane-3-carboxamide]"
10,< 100,"COc1cc(OC)c2c(c1)c1c(N)ncnc1n2CC(=O)N1[C@@H]2C[C@@H]2C[C@H]1C(=O)Nc1cccc(Br)n1 [Compound 278g, (1R,3S,5R)-2-(2-(4-amino-6,8-dimethoxy-9H-pyrimido[4,5-b]indol-9-yl)acetyl)-N-(6-bromopyridin-2-yl)-2-azabicyclo[3.1.0]hexane-3-carboxamide]"
11,< 100,"Cc1cc2c(cc1F)c1c(N)ncnc1n2CC(=O)N1[C@H](C(=O)Nc2cccc(Br)n2)C[C@@]2(C)C[C@@H]12 [Compound 382a, (1R,3S,5R)-2-(2-(4-amino-6-fluoro-7-methyl-9H-pyrimido[4,5-b]indol-9-yl)acetyl)-N-(6-bromopyridin-2-yl)-5-methyl-2-azabicyclo[3.1.0]hexane-3-carboxamide]"
12,100 to 1000,"Cc1ccc(Br)nc1NC(=O)[C@@H]1C[C@@]2(C)C[C@H]2N1C(=O)Cc1ccc2c(N)ncnn12 [Compound 72a, (1R,3S,5R)-2-(2-(4-aminopyrrolo[2,1-f][1,2,4]triazin-7-yl)acetyl)-N-(6-bromo-3-methylpyridin-2-yl)-5-methyl-2-azabicyclo[3.1.0]hexane-3-carboxamide]"
13,< 100,"Cc1ncc(-c2cc(C)c3c(c2)c2c(N)ncnc2n3CC(=O)N2[C@H](C(=O)Nc3cccc(Br)n3)C[C@@]3(C)C[C@@H]23)cn1 [Compound 309a, (1R,3S,5R)-2-(2-(4-amino-8-methyl-6-(2-methylpyrimidin-5-yl)-9H-pyrimido[4,5-b]indol-9-yl)acetyl)-N-(6-bromopyridin-2-yl)-5-methyl-2-azabicyclo[3.1.0]hexane-3-carboxamide]"
14,< 100,"CC(=O)c1ccc2c(c1)c1c(N)ncnc1n2CC(=O)N1[C@@H]2C[C@@H]2C[C@H]1C(=O)Nc1cccc(Br)n1 [Compound 58c, (1R,3S,5R)-2-(2-(6-acetyl-4-amino-9H-pyrimido[4,5-b]indol-9-yl)acetyl)-N-(6-bromopyridin-2-yl)-2-azabicyclo[3.1.0]hexane-3-carboxamide]"
15,< 100,"COc1cc2c(cc1C(F)(F)F)c1c(N)ncnc1n2CC(=O)N1[C@@H]2C[C@@H]2C[C@H]1C(=O)Nc1cccc(Br)n1 [Compound 367g, (1R,3S,5R)-2-(2-(4-amino-7-methoxy-6-(trifluoromethyl)-9H-pyrimido[4,5-b]indol-9-yl)acetyl)-N-(6-bromopyridin-2-yl)-2-azabicyclo[3.1.0]hexane-3-carboxamide]"
16,100 to 1000,"Nc1ncnc2c1c1cc(C(F)(F)F)ccc1n2CC(=O)N1C[C@@H](N)C[C@H]1C(=O)Nc1cccc(Br)n1 [Compound 180e, (2S,4S)-4-amino-1-(2-(4-amino-6-(trifluoromethyl)-9H-pyrimido[4,5-b]indol-9-yl)acetyl)-N-(6-bromopyridin-2-yl)pyrrolidine-2-carboxamide]"
17,100 to 1000,"Nc1ncnn2c(CC(=O)N3[C@@H]4C[C@@H]4C[C@H]3C(=O)Nc3cccc(Br)n3)ccc12 [Compound 70a, (1R,3S,5R)-2-(2-(4-aminopyrrolo[2,1-f][1,2,4]triazin-7-yl)acetyl)-N-(6-bromopyridin-2-yl)-2-azabicyclo[3.1.0]hexane-3-carboxamide]"
18,< 100,"Nc1ncnc2c1c1cc(C(=O)O)ccc1n2CC(=O)N1[C@@H]2C[C@@H]2C[C@H]1C(=O)Nc1cccc(Br)n1 [Compound 44a, 4-amino-9-(2-((1R,3S,5R)-3-((6-bromopyridin-2-yl)carbamoyl)-2-azabicyclo[3.1.0]hexan-2-yl)-2-oxoethyl)-9H-pyrimido[4,5-b]indole-6-carboxylic acid]"
19,< 100,"Nc1ncnc2c1c1cc(C(F)(F)F)ccc1n2CC(=O)N1[C@@H]2C[C@@H]2C[C@H]1C(=O)Nc1cccc(Cl)n1 [Compound 267c, (1R,3S,5R)-2-(2-(4-amino-6-(trifluoromethyl)-9H-pyrimido[4,5-b]indol-9-yl)acetyl)-N-(6-chloropyridin-2-yl)-2-azabicyclo[3.1.0]hexane-3-carboxamide]"
